# Molecular target: Protein kinase C delta type (Mus musculus, UniProt P28867)
# Assay: Inhibition of [3H]PDBu binding to PKCdelta C1B domain in CD-1 mouse brain cytosol incubated for 30 mins
# Chain of Protein kinase C delta type (P28867 whole entry, the tested form may be a part): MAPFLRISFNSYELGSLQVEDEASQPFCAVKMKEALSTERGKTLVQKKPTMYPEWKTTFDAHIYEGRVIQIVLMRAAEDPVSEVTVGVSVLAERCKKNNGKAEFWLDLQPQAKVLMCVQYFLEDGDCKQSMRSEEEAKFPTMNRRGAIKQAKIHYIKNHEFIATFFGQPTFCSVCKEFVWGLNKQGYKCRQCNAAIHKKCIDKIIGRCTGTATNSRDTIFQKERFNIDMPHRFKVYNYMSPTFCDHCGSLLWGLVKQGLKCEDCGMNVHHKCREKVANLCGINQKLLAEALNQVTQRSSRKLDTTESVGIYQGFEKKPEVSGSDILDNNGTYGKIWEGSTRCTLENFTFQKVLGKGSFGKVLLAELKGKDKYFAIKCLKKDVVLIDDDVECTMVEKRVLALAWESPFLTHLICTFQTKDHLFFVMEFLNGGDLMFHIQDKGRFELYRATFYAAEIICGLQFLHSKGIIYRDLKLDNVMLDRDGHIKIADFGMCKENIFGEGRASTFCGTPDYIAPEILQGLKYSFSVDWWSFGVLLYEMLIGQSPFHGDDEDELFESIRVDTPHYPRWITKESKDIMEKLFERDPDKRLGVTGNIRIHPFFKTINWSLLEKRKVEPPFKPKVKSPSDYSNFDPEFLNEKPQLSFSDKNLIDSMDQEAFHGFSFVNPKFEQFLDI
row,Ki [nM],SMILES
1,370,CCCCCCCCOC(=O)C[C@@H](OC(=O)CCCCCCC)[C@@H](C)O
2,> 20000,CCCCCCCCC[C@@H](OC(=O)CCCCCCC)[C@@H](C)O
3,2900,CCCCCCCCOC(=O)C[C@@H](OCCCCCCCC)[C@@H](C)O

# Source: ChEMBL document CHEMBL3822405, “Binding mode prediction of aplysiatoxin, a potent agonist of protein kinase C, through molecular simulation and structure-activity study on simplified analogs of the receptor-recognition domain” (Bioorg Med Chem, 2016)
